Entries after “also recorded” stand apart in the source; their conditions may differ. Like-named read-outs stand apart in the source and are kept apart here.
B1: BMP-4: inductive signal added to basal media for astrocyte differentiation (R and D systems) (protein, UniProt P12644 293-408, looked up)
Bone morphogenetic protein 4: SPKHHSQRARKKNKNCRRHSLYVDFSDVGWNDWIVAPPGYQAFYCHGDCPFPLADHLNSTNHAIVQTLVNSVNSSIPKACCVPTELSAISMLYLDEYDKVVLKNYQEMVVEGCGCR

How the values were obtained:
[1] = system: GNS cell lines G144, G166, and G179; type: cell-based; details: 10 μM, two days
tumor lines (GNS cells) = test: Validation with compounds from an independent supplier, tumor lines; type: cell-based, human; details: 10 μM, 2 days
Method: (§1) Here, selected compounds from an independent source were applied (2 μM for Tegaserod, 10 μM for all others) to G179 (left), HS 27 (middle) or fetal NS (right).
(§2) We carried out two fully independent screens using G144, G166, and G179, as well as a human fibroblast cell line (HS27). […] We chose Glioma NS cell lines to validate several of the drugs, from each class, using compounds obtained from an independent supplier (FIG. 18D).
(§3) For the drug screen we used the IncucyteHD system (Essen Instruments, USA), which enables simultaneously monitoring of six 96-well microplates. GNS cell lines were plated at 10-20% confluence on 96 well plates (Iwaki) coated with laminin (10 μg/ml for 3 hours). The NCC NIH Chemical Compounds library (http://www.nihclinicalcollection.com/) was added to the plates at a final concentration of 10 μM per compound per well (DMSO 0.1%). Images were captured before and after the addition of the library every half hour for 2.5 days in an automated manner using the Incucyte HD device (Essen Instruments, USA). Relative increase in cell number values were generated for every well using confluence readings obtained at each time-point relative to the starting confluence. For every cell line (G144, G166, G179, and HS27) two independent screens were run. HS27 is a human foreskin fibroblast line (American Type Culture Collection). […] Every well associated with a reduction in cell number within the 5* percentile in at least 3 independent screens was visually inspected.

fetal NS cells = test: Validation with compounds from an independent supplier, fetal NS cells; type: cell-based, human; details: 10 μM, 2 days
Method: as §1, §2, §3

fibroblast cells (HS27) = test: Validation with compounds from an independent supplier, fibroblasts; type: cell-based, human; details: 10 μM, 2 days
Method: as §1, §2, §3

[2] = system: human fibroblast cell line (HS27); test: Live-cell imaging (IncucyteHD) chemical screen on fibroblast line; type: cell-based; details: 10 μM, two days
Method: as §2, §3

GNS cells [3] = test: TUNEL and caspase staining of treated cells; type: cell-based, human; details: treated versus untreated cells
Source text: FIG. 18E is a set of photomicrographs of cells either untreated or treated with indatraline and stained for TUNEL and caspase.

GNS cells [4] = test: GNS cell expansion culture; type: cell-based, human
Method: GNS cell expansion was carried out as described previously for human foetal NS cells (Sun et al., (2008) Mol Cell Neurosci 38, 245-258). Tissue culture flasks were pre-treated with Laminin, 10 μg/ml in PBS, (Sigma), for at least 3 hrs at 37° C. […] GNS cells were routinely grown to confluence, dissociated using Accutase (Sigma), and then split 1:3 to 1:5. Media was replaced with fresh media every 3-5 days. For all routine analysis we typically worked with cells between passage 10 and 20. For freezing, we re-suspended cell pellets in 0.5 ml of 10% DMSO/Media and placed in a −80° C. freezer. For long-term storage, liquid nitrogen was used. […] Fetal NS cells CB541 and CB660 are described by Sun et al., 2008, supra), while hf240, hf286, and hf289 (used in the microarrays) were isolated using similar techniques.

G144 cells = test: Astrocyte differentiation on BMP-4 exposure, G144; type: cell-based, human; details: BMP-4 10 ng/ml, 7 days
Method: (§4) To determine whether GNS cells could respond to inductive signals and generate astrocytes, we exposed cells to BMP-4 or serum. […] This response is similar to that of human fetal NS cells (Sun et al., (2008) Mol Cell Neurosci 38, 245-258). Similar results were seen using serum treatment. […] Thus, while GNS cells retain a capacity to differentiate, the efficiency and lineage choice vary dramatically between each line.
(§5) All differentiation was carried out on laminin-coated plastic, either in 4-well plates (˜0.5-1×10^5 cells/well) (Nunc), or for time-lapse movies using 24-well Imagelock microplates (Essen Instruments). For oligodendrocytes and neuronal differentiation we used the same basal media but lacking EGF or FGF-2 (i.e., growth factor withdrawal). For astrocyte differentiation, we supplemented basal media with either BMP at 10 ng/ml (R and D systems), or 1% serum (Sigma). In each case, cells were washed twice with PBS or minimal media before adding the final differentiation media. Samples were processed for immunocytochemistry, typically 7-10 days later.
(§6) Cells w ere fixed in 4% PFA for 10 min and then washed with PBS+0.1% TritonX-100 (PBST). Blocking was carried out using 1% goat serum for 30 mins. […] Images were acquired using a Leica DMI400B inverted fluorescence microscope linked to a DFC340FX camera.

G179 cells = test: Astrocyte differentiation on BMP-4 exposure, G179; type: cell-based, human; details: BMP-4 10 ng/ml, 7 days
Method: as §4, §5, §6

G166 cells = test: Astrocyte differentiation on BMP-4 exposure, G166; type: cell-based, human; details: BMP-4 treatment
Method: as §4, §5, §6

| Molecule | killing of / effect on all GNS cell lines [1] | cell death in tumor lines (tumor lines (GNS cells)) | cell death in fetal NS cells (fetal NS cells) | effect on fibroblast cells (fibroblast cells (HS27)) | other results |
| --- | --- | --- | --- | --- | --- |
| c1ccc2c(c1)Nc1ccccc1S2 [10H-phenothiazine] | killed all GNS cell lines | – | – | – | – |
| CN1CCN(c2nc3cc(C(F)(F)F)ccc3n3cccc23)CC1.O=C(O)/C=C\C(=O)O.O=C(O)/C=C\C(=O)O [CGS 12066B] | killed all GNS cell lines | – | – | – | – |
| C[C@@H]1CN(CCCn2c3ccccc3c3ccccc32)C[C@H](C)N1 [Rimcazole] | killed all GNS cell lines | cell death | cell death | less striking or no effect | – |
| CN1CCN(CCCN2c3ccccc3Sc3ccc(C(F)(F)F)cc32)CC1 [Trifluoperazine] | killed all GNS cell lines | – | – | – | – |
| CNC1CC(c2ccc(Cl)c(Cl)c2)c2ccccc21 (stereo not drawn) [indatraline] | killed all GNS cell lines | cell death | cell death | less striking or no effect | killing of / effect on all GNS cell lines ([1]; listed as Indatraline): affected all GNS cells; effect on fibroblasts [2]: no effect; apoptotic cell death (TUNEL and caspase staining) (GNS cells [3]): dying by an apoptotic pathway; also recorded: increase in TUNEL and caspase staining |
| Fc1ccc([C@@H]2CCNC[C@H]2COc2ccc3c(c2)OCO3)cc1 [paroxetine] | killed all GNS cell lines | – | – | – | killing of / effect on all GNS cell lines ([1]; listed as Paroxetine): affected all GNS cells; effect on fibroblasts [2]: no effect |
| CN[C@H]1CC[C@@H](c2ccc(Cl)c(Cl)c2)c2ccccc21 [sertraline] | – | cell death | cell death | less striking or no effect | – |
| [H]/N=C(/NCCCCC)N/N=C/c1c[nH]c2ccc(OC)cc12 [tegaserod] | killed all GNS cell lines | – | – | – | – |
| LIF: the cytokine LIF (leukemia inhibitory factor) | – | – | – | – | effect on the cells in expansion culture (GNS cells [4]): no apparent effect |
| B1 | – | – | – | – | differentiation into GFAP+ cells (G144 cells): majority of cells express high levels of GFAP; also recorded: efficiently differentiate into GFAP^+ cells; differentiation into GFAP+ cells (G179 cells): majority of cells express high levels of GFAP; also recorded: efficiently differentiate into GFAP^+ cells; differentiation into GFAP+ cells (G179 cells; listed as BMP): expressed high levels of GFAP; differentiation into GFAP+ cells (G166 cells): did differentiate; differentiation into GFAP+ cells (G166 cells; listed as BMP): could only be observed at low frequency |

Reference: patent US20100287638A1, “NEURAL TUMOR STEM CELLS AND METHODS OF USE THEREOF” (The Hospital for Sick Children, priority 2007, published 2010)
